Assay: Release of fluorometholone in the rabbit eye, measured in aqueous humor
Assay type: in vivo
Details: measured by fluorometholone contained in the aqueous humor
Description: The viscous gels that result upon administration of the aqueous suspensions of this invention to the eye have residence times in the eye ranging from about 2 to about 12 hours, e.g., from about 3 to about 6 hours. The active ingredients contained in these ophthalmically acceptable vehicles are released from the gels at rates that depend on such factors as the active ingredient itself and its physical form, the extent of drug loading and the pH of the system, as well as on any drug delivery adjuvants, such as ion exchange resins compatible with the ocular surface, which can also be present.

Release rates in the rabbit eye: in excess of four hours
Structure (SMILES): CC(=O)[C@@]1(O)CC[C@H]2[C@@H]3C[C@H](C)C4=CC(=O)C=C[C@]4(C)[C@@]3(F)[C@@H](O)C[C@@]21C [fluorometholone]
